Columns and labels:
resistente Herpesviren = test: Local treatment of herpes keratitis produced with resistant strains; type: in vivo; conditions: Kaninchen, lokal, bis zu 7 mal täglich, bis zu 11 Tage; JDU-MP 0,1 bis 1 %, ÄDU-MP 0,1 bis 8 %, TFT-MP 0,1 bis 2 %, ARA-A-MP 0,2 bis 2 %, Acycloguanosin-Monophosphat 0,5 bis 5 %
Procedure: Man züchtet Herpes-Viren in Gewebekulturen von menschlichen Fibroblastzellen über 1 bis 5 Passagen in Gegenwart von Nukleosiden, wie beispielsweise ÄDU (Äthyldesoxyuridin), Konzentration: 20 µg/ml, TFT (Trifluorthymidin) Konzentration 5 bis 10 µg/ml, ARA-A-MP (Arabinofuranosyladenin-Monophosphat),Konzentration 20 µg/ml, Acycloguanosin (ACG), Konzentration 5 bis 30 µg/ml, wobei der Saatvirus auf die Cornea der Tiere (Hamster, Kaninchen) durch Aufträufeln übertragen wird. Zwei Stunden nach der Übertragung erfolgt die Behandlung der Cornea lokal mit den entsprechenden Nukleosiden in den oben angegebenen Konzentrationen. Dabei zeigt sich, daß die Viren für die Nukleoside resistent werden. Die Bewertung der Infektion erfolgt durch Anfärben der Hornhaut mit Fluorescin-Na-Lösung (1 %) und anschließende Farbphotodokumentation.
Die Behandlung der Herpes-Keratitis bei Kaninchen, erzeugt mit den resistenten Stämmen, erfolgt lokal mit folgenden Wirkstoffen: JDU-MP (Joddesoxyuridin-Monophosphat), Konzentration 0,1 bis 1 %, ÄDU-MP (Äthyldesoxyuridin-Monophosphat), Konzentration: 0,1 bis 8 %, TFT-MP (Trifluor- thymidin-Monophosphat), Konzentration: 0,1 bis 2 %, ARA-A-MP (Arabinofuranosyladenin-Monophosphat), Konzentration: 0,2 bis 2 %, Acycloguanosin-Monophosphat, Konzentration: 0,5 bis 5 %, bis zu 7 mal täglich für die Dauer von bis zu 11 Tagen.

Herpes-Simplex-Viren = test: Inhibition of herpes simplex virus replication in tissue cultures of chick embryo fibroblasts; type: cell-based; conditions: Gewebekulturen von Hühnerembryofibroblasten; Konzentration 10 µg/ml
Procedure: Dem «-XDU-Monophosphat kommt eine ungewöhnliche Eigenschaft zu, die vom Fachmann nicht vorhersehbar war. Es ist nämlich in der Lage, die Vermehrung von Herpes-Simplex-Viren zu hemmen. In Gewebekulturen von HUhnerembryofibroblasten hemmt α-ÄDU-MP in einer Konzentration von 10 µg/ml deutlich die Virusvermehrung. Unter gleicher Bedingung ist α-ÄDU selbst ohne Wirkung.

DNS = test: Incorporation into DNA (stated property, no method described); conditions: acts virostatically; no test described

Compound | Bekämpfung der durch resistente Herpesviren verursachten Infektion (Herpes-Keratitis) (resistente Herpesviren) | Hemmung der Virusvermehrung (Herpes-Simplex-Viren) | Einbau in die DNS (DNS)
O=c1[nH]c(=O)n([C@H]2C[C@H](O)[C@@H](COP(=O)(O)O)O2)cc1I [JDU-MP, Joddesoxyuridin-Monophosphat] | wirksam bekämpfen |  | 
Nc1nc2c(ncn2COCCOP(=O)(O)O)c(=O)[nH]1 [Acycloguanosin-Monophosphat] | wirksam bekämpfen |  | 
CCc1cn([C@@H]2C[C@H](O)[C@@H](COP(=O)(O)O)O2)c(=O)[nH]c1=O [α-ÄDU-MP, α-5-Äthyl-2'-deoxyuridin-5'-monophosphat] |  | deutlich | ohne in die DNS eingebaut zu werden
O=c1[nH]c(=O)n([C@H]2C[C@H](O)[C@@H](COP(=O)(O)O)O2)cc1C(F)(F)F [TFT-MP, Trifluor- thymidin-Monophosphat] | wirksam bekämpfen |  | 
CCc1cn([C@@H]2C[C@H](O)[C@@H](CO)O2)c(=O)[nH]c1=O [α-ÄDU, α-5-Äthyl-2'-deoxyuridin, reference compound] |  | ohne Wirkung | 
CCc1cn([C@H]2C[C@H](O)[C@@H](COP(=O)(O)O)O2)c(=O)[nH]c1=O [ÄDU-MP, Äthyldesoxyuridin-Monophosphat] | wirksam bekämpfen |  | 
